Data published in PMC6271730, “Bioactive Secondary Metabolites from Phomopsis sp., an Endophytic Fungus from Senna spectabilis” (Molecules, 2014).
Like-named read-outs stand apart in the source and are kept apart here.

Target: T1, Myeloperoxidase (MPO, EC 1.11.1.7) (Homo sapiens, UniProt P05164)
T1 construct: commercial purified enzyme (Planta Natural Products, Vienna); mature heavy and light chains come from one precursor
Assay: MPO chlorination activity, taurine chloramine / TMB oxidation at […] nm
Assay type: biochemical

T1 sequence (P05164 165-273): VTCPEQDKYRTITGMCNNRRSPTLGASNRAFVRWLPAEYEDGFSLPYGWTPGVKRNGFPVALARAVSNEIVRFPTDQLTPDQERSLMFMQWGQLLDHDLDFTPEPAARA
T1 sequence (P05164 279-745): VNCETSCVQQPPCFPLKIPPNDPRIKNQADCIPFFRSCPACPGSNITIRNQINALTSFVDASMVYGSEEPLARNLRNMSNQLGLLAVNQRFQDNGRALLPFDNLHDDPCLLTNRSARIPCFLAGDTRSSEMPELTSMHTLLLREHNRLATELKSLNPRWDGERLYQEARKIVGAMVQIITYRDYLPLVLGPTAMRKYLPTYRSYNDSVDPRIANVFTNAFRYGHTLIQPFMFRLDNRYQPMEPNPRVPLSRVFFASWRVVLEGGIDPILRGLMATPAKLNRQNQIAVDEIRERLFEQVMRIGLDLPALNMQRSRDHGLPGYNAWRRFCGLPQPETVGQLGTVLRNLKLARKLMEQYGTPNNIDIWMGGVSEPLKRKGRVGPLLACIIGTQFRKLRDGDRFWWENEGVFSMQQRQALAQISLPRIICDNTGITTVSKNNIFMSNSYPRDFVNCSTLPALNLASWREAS

| Structure (SMILES) | IC50 | IC50 (read-out: IC50) |
| --- | --- | --- |
| Cc1cc(O)cc2oc(=O)c3c(O)cc(O)cc3c12 [compound 5, alternariol] | > 50 µM |  |
| COc1cc(O)c2c(=O)oc3cc(O)cc(C)c3c2c1 [compound 4, alternariol monomethyl ether] |  | > 50 µM |
